From paper PMC6028563, “Probing Substituents in the 1- and 3-Position: Tetrahydropyrazino-Annelated Water-Soluble Xanthine Derivatives as Multi-Target Drugs With Potent Adenosine Receptor Antagonistic Activity” (Frontiers in Chemistry, 2018)
≈ marks a conversion by molar mass, not a printed value. Like-named read-outs stand apart in the source and are kept apart here.

Legend:
[1] = Thermodynamic solubility measurements; format: physicochemical; details: thermodynamic from solid, thermodynamic solubility
Description: This is expected to facilitate dissolution in the stomach. Depending on the substitution pattern they may also be well soluble at higher pH values (Brunschweiger et al., [2014]). In the present study we measured thermodynamic solubility of only very few compounds exemplarily (14a-e, 14g, 15f,g) and confirmed their high solubility at pH 1 (see Table S1 in Supplementary Material). Most of these compounds were still soluble at pH 7.4. The best soluble derivative was the 3-ethyl-1-methyl-8-m-fluorobenzyl derivative 14g with solubilities of >1.5 g/L (4.2 mM) at pH 1, 50 mg/L (0.14 mM) at pH 4, and 40 mg/L ([…]) at pH 7.4.
Table S1. Solubility of selected compounds at three different pH values (in mg/mL).a
Compound pH 1 pH 4 pH 7.4
adetermined by thermodynamic solubility measurements.

human A2A AR = target: T1, human A2A AR (Homo sapiens, UniProt P29274); assay: Radioligand binding assay at human A2A AR vs. [^3H]MSX-2; details: CHO cell membranes, n = 3, read-out: Ki ± SEM, A2A vs. [^3H]MSX-2
T1 construct: expressed in transfected cells; host or cells: CHO cells
T1 sequence (P29274 whole entry): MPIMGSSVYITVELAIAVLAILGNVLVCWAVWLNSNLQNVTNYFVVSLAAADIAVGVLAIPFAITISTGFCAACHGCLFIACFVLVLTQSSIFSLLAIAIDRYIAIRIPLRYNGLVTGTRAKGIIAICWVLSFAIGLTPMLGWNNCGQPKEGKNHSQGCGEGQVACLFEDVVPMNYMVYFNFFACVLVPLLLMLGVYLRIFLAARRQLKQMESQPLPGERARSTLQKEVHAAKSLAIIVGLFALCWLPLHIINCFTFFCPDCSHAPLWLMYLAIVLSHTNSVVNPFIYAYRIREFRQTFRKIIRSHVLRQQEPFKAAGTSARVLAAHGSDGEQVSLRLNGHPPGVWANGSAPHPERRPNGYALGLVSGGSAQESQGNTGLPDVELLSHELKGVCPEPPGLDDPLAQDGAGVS
Outline: (§1)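 Using CHO membranes with one recombinant human AR subtype each (A1, A2A, A2B, A3), plus rat cortical (A1) and striatal (A2A) membranes, compounds are tested in radioligand binding to give receptor affinity and subtype selectivity.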

human A1 AR = target: T2, human A1 AR (Homo sapiens, UniProt P30542); assay: Radioligand binding assay at human A1 AR vs. [^3H]CCPA; details: for Ki: human (h), CHO cell membranes, n = 3
T2 construct: expressed in transfected cells; host or cells: CHO cells
T2 sequence (P30542 1-326): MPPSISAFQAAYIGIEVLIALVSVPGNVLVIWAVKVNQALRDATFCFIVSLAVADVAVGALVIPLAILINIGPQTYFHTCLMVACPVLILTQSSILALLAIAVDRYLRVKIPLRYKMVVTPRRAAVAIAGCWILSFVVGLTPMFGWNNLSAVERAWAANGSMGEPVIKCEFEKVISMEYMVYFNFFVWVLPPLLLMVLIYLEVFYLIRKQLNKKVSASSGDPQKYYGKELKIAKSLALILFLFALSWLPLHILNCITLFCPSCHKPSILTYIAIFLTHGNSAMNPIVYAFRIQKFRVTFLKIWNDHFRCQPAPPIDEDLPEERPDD
Outline: as §1

recombinant human MAO-A = target: T3, recombinant human MAO-A (Homo sapiens, UniProt P21397); assay: Monoamine oxidase assay (Amplex Red), MAO-A; format: biochemical; details: for inhibition at 10 µM: at 10,000 nM, read-out: % inhibition at indicated concentration, Human MAO-A; for IC50: n = 3, read-out: IC50 ± SEM, Human MAO-A
T3 construct: purchased Sigma-Aldrich M7316; host or cells: baculovirus-infected insect cells
T3 sequence (P21397 1-527): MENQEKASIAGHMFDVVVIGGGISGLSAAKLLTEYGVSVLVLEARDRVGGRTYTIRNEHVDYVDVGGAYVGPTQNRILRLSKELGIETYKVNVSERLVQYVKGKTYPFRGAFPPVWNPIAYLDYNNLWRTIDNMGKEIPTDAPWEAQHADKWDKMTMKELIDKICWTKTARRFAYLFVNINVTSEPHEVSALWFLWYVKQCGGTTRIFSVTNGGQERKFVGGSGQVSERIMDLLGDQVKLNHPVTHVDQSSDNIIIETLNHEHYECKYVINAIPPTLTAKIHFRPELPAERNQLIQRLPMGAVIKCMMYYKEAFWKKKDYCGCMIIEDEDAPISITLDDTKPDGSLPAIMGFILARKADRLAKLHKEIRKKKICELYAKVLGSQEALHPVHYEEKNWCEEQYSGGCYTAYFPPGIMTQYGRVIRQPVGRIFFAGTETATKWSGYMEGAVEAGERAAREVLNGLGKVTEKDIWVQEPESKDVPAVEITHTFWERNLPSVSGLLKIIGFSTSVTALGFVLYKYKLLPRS
Outline: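 Recombinant human MAO-A and MAO-B, expressed in baculovirus-infected insect cells, were assayed by Amplex Red fluorometric detection. Rat MAO-B inhibition used mitochondria-enriched fractions from male Sprague Dawley rat liver.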

[2] = aqueous buffer, pH 4, read-out: Solubility, pH 4
[3] = aqueous buffer, pH 7.4, read-out: Solubility, pH 7.4
[4] = simulated gastric fluid, pH 1, read-out: Solubility, pH 1

SMILES | solubility [1, 2] | solubility [1, 3] | solubility [1, 4] | Ki (human A2A AR) | Ki (human A1 AR) | selectivity for the human A1 vs. the human A2A AR (human A1 AR; ratio of Ki values, human receptors) | inhibition at 10 µM (recombinant human MAO-A) | IC50 (recombinant human MAO-A)
CCn1c(=O)c2c(nc3n2CCN(Cc2cccc(C(F)(F)F)c2)C3)n(CC)c1=O [Compound 15g, 1,3-diethyl-8-(3-(trifluoromethyl)benzyl)-6,7,8,9-tetrahydropyrazino[2,1-f]purine-2,4(1H,3H)-dione] | 2 µg/mL (≈ 4.75 µM) | 2 µg/mL (≈ 4.75 µM) | 600 µg/mL (≈ 1420 µM) | 277 ± 59 nM | 84.8 ± 2.4 nM | – | – | –
CCn1c(=O)c2c(nc3n2CCN(Cc2ccccc2Br)C3)n(C)c1=O [Compound 14a, 8-(2-bromobenzyl)-3-ethyl-1-methyl-6,7,8,9-tetrahydropyrazino[2,1-f]purine-2,4(1H,3H)-dione] | 0.9 µg/mL (≈ 2.15 µM) | 0.8 µg/mL (≈ 1.91 µM) | 200 µg/mL (≈ 478 µM) | 497 ± 62 nM | 41.7 ± 8.3 nM | > 10 fold | – | –
CCn1c(=O)c2c(nc3n2CCN(Cc2cccc(C(F)(F)F)c2)C3)n(C)c1=O [Compound 14e, 3-ethyl-1-methyl-8-(3-(trifluoromethyl)benzyl)-6,7,8,9-tetrahydropyrazino[2,1-f]purine-2,4(1H,3H)-dione] | 2 µg/mL (≈ 4.91 µM) | 2 µg/mL (≈ 4.91 µM) | 400 µg/mL (≈ 982 µM) | 1780 nM | 156 ± 49 nM | – | 12% | > 10 µM
CCn1c(=O)c2c(nc3n2CCN(Cc2ccc(Br)cc2)C3)n(C)c1=O [Compound 14c, 8-(4-bromobenzyl)-3-ethyl-1-methyl-6,7,8,9-tetrahydropyrazino[2,1-f]purine-2,4(1H,3H)-dione] | 6 µg/mL (≈ 14.3 µM) | 3 µg/mL (≈ 7.17 µM) | 1300 µg/mL (≈ 3110 µM) | – | 1350 nM | – | 2% | > 10 µM
